Laboratory results from patent US10272120B2, “Synergistic composition comprising propolis and carnosic acid for use in the prevention and treatment of candidiasis” (priority 2015, dated 2019).
Converted amounts (≈) assume the structure as drawn.

Tests used:
parental strain SC5314 [1] = test: Inhibition kinetics / synergy assay, liquid medium and colony formation on plate; type: cell-based, Candida albicans; conditions: carnosic acid 50 μg/ml, propolis 3 200 μg/ml
Experimental: FIG. 8. (A) Measurement of the kinetic growth in the parental strain SC5314. With regard to previous assays, the following modifications were used: (i) Reduction of the concentration of carnosic acid to 50 μg/ml, maintaining that of the propolis 3 (PP) at (200 μg/ml), in order to better monitor its effect on cell viability. […] (B) Assay of colony formation on plate.
Then, in strain SC5314, as it is a reference lineage, new experiments simultaneously measuring the kinetics of inhibition of cell viability at sub-inhibitory concentrations of the carnosic acid (up to 50 μg/ml) and propolis 3 (200 μg/ml) were conducted together with the synergy assays between the two. The tested aliquots come from a single initial exponential culture and, therefore, the physiological state of the cells is identical.

SC5314 strain = test: Cell morphology by optical microscopy; type: cell-based, Candida albicans
Excerpt: FIG. 5. Optical micrographs (100×) where it can be seen how the treatment with increasing doses of carnosic acid caused visible alterations in the cellular morphology, resulting in cells with a more swollen and deformed aspect, with increased birefringence and the apparent loss of ability to transition dimorphically to mycelial structures (hyphae).
FIG. 6. Optical micrographs (40×) taken in order to provide better visual field with higher cell density, using the same cultures as in FIG. 5. The presence of swollen cells is very significant in the image, with a carnosic acid concentration of 100 μg/ml.

[2] = system: C. albicans strain SC5314; test: Yeast-hyphae dimorphic transition induced by human serum; type: cell-based, Candida albicans; conditions: YPD plus human serum at 10%, 37° C., different concentrations
Experimental: FIG. 9. Effect of the addition of carnosic acid on the percentage of yeast-hyphae dimorphic transition in C. albicans induced by human serum at 37° C. Exponential cultures of strain SC5314 were centrifuged and resuspended in fresh YPD medium preheated at 37° C. Identical samples were treated with carnosic acid at the indicated concentrations, using an untreated sample and a sample maintained at 28° C. as controls. The percentage of germ tubes emission (first stage of the formation of hyphae) was calculated by direct microscopic count with a hemocytometer.
FIG. 10. Micrographs illustrating the effect of carnosic acid on the dimorphism of C. albicans. In the control assay with the lowest concentration of carnosic acid, a high percentage of filamentation (grouped hyphae forming a mycelium) which decreased proportionally with increasing dose of the latter, was observed.
These assays are also complemented with the evaluation of the influence on the morphology (dimorphism) of C. albicans. In FIGS. 9 and 10, the effect of the carnosic acid on the dimorphic transition of the strain SC5314 of C. albicans was explored, given that the yeast-mycelium dimorphic transition is considered to be a factor of virulence in this opportunistic pathogen. To do this, an “overnight” culture was […] to a low optical density (0.1) and left to grow to 0.3 at 37° C. […]

[3] = system: C. albicans yeast (blastoconides) CAI-4; test: Cell morphology by optical microscopy (Nomarsky); type: cell-based, Candida albicans
Experimental: FIG. 4. Inspection of the cell morphology by optical microscopy, using the interference contrast of “Nomarsky” on C. albicans yeast (blastoconides) CAI-4, treated with: propolis 3 (200 μg/ml), carnosic acid (100 μg/ml) and the combination of both compounds.
As an essential tool in understanding the effectiveness of these compounds on C. albicans cell viability, detailed studies on the effects of their administration on the cell morphology of this opportunistic pathogen, visualized by optical microscopy, were performed (FIGS. 4, 5 and 6).

CAI-4 = test: MIC determination; type: cell-based; conditions: Candida albicans; strain CAI-4
parental strain SC5314 [4] = test: MIC determination; type: cell-based; conditions: Candida albicans
C. albicans strain CAI-4 = test: Viability assay in liquid YPD medium and colony formation on solid YPD; type: cell-based, Candida albicans; conditions: concentrations of 200 y 2000 μg/ml
Experimental: FIG. 1. Viability assay on liquid YPD medium (A) and colony formation on solid YPD medium (B) on C. albicans strain CAI-4 to different concentrations of carnosic acid, propolis 2 and 3. It started from a preinocolum culture incubated overnight at 28° C.; the next day refreshed in YPD medium to a D.O600 nm=0.3. The culture was allowed to grow to D.O600 nm=0.6 at 37° C., moment at which the compounds, object of the study, are added for one hour at the same temperature. Additionally, a positive control of antifungal activity with amphotericin B was included under the same conditions.
(§1) Assays were carried out in liquid YPD medium (1% yeast extract, 2% peptone and 2% glucose) at 37° C. Initially the C. albicans strain CAI-4 was used, but as it presented growth problems during the calculation of the MIC, it was replaced by its parental (SC5314, wild type), widely used in the laboratory. The procedure consisted of applying different concentrations of carnosic acid and propolis (one hour, unless other times are indicated) on exponential cultures of C. albicans grown in YPD. The percentage of cell viability was determined by counting the number of viable cells in the solid YPD medium after incubation at 37° C. for 24-48 hours (FIG. 1).

[5] = system: C. albicans standard strain SC5314; test: Viability assay in liquid medium and colony formation on solid YPD; type: cell-based, Candida albicans; conditions: various concentrations, exponential YPD liquid cultures
Excerpt: FIG. 2. Viability assay in liquid medium of the C. albicans standard strain SC5314 to different concentrations of carnosic acid and propolis 1. As a positive control Amphotericin B was used. Due to the particular behaviour of the CAI-4 strain when carrying out MICs, it was decided to use the wild strain SC5314 ([…] parental), in order to validate the effect of the compounds of study on an international C. albicans reference strain. The assay followed the same procedure described in FIG. 1.
FIG. 3. Assay of macroscopic colony formation in solid YPD medium. The C. albicans standard strain SC5314 was used to the concentrations of carnosic acid and propolis 1 indicated. As a positive control Amphotericin B was used. For further details of methodology see FIG. 1.
as §1, with “The procedure consisted of applying different concentrations of carnosic acid and propolis (one hour, unless other times are indicated) on exponential cultures of C. albicans grown in YPD.” left out, “1). […]” for “1).”

## CC(C)c1cc2c(c(O)c1O)[C@@]1(C(=O)O)CCCC(C)(C)[C@@H]1CC2 [carnosic acid]
Parental strain SC5314 [1]
  antifungal action considered individually: strong antifungal action
Parental strain SC5314 [1]; combination read at one hour
  growth on plate (FIG. 8): growth is visible
SC5314 strain; 100 μg/ml of carnosic acid, Nomarsky contrast
  cell morphology: growing swelling
SC5314 strain; 500 μg/ml
  cells seen in micrograph (40×): small number of cells
SC5314 strain; increasing concentration of carnosic acid
  cell morphology: swelling and deformation of the yeast cells
[2]
  filamentation (yeast-mycelium dimorphic transition): reduced the filamentation of C. albicans in a dose-dependent way
[3]; more significant after five hours of treatment
  effect on cell morphology: apparent cellular reduction of size (volume)
[3]; propolis 3 200 μg/ml, carnosic acid 100 μg/ml, and the combination
  cell morphology (FIG. 4 legend): significant reduction in cell size
CAI-4
  MIC: 250 µg/mL (≈ 752 µM)
Parental strain SC5314 [4]
  MIC: 250 µg/mL (≈ 752 µM)
C. albicans strain CAI-4
  antifungal effect: strong antifungal effect
[5]
  cell viability: significant decrease in cell viability
